Measurements: US20240158368A1, “Pyrrolidine Main Protease Inhibitors as Antiviral Agents” (AbbVie Inc., priority 2022, published 2024)

Experiments:
in vitro [1] = conditions: PAMPA
in vitro [2] = conditions: rat, pH 7.4
in vitro [3] = conditions: human, pH 7.4
MERS Mpro = MERS Mpro (Middle East respiratory syndrome-related coronavirus (isolate United Kingdom/H123990006/2012) (MERS-CoV) (Betacoronavirus England 1), UniProt K9N7C7); experiment: biochemical
OC43 Mpro = OC43 Mpro (Human coronavirus OC43 (HCoV-OC43), UniProt P0C6X6); type: biochemical
Sequence of OC43 Mpro (P0C6X6 3247-3549 limits assumed): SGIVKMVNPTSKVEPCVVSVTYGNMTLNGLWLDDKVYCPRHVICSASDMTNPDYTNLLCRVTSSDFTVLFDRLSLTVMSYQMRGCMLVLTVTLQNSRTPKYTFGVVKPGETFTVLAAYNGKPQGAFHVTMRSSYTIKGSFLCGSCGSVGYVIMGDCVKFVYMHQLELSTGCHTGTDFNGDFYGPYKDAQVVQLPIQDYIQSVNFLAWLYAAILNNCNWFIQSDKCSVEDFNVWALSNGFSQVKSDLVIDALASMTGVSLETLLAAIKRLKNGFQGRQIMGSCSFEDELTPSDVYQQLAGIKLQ

229E Mpro = 229E Mpro (Human coronavirus 229E (HCoV-229E), UniProt P0C6X1); type: biochemical
Sequence of 229E Mpro (P0C6X1 2966-3267 limits assumed): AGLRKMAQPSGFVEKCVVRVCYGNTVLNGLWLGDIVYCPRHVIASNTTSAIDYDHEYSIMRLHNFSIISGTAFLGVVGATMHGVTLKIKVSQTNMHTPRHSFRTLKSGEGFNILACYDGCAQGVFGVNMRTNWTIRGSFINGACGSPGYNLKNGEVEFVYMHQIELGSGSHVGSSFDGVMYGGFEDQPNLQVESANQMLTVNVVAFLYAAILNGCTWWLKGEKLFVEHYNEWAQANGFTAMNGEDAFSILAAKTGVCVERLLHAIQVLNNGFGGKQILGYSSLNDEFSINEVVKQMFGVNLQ

SARS-CoV-2 Mpro = SARS-CoV-2 Mpro (Severe acute respiratory syndrome coronavirus 2 (2019-nCoV) (SARS-CoV-2), UniProt P0DTD1); type: biochemical
[4] = test system: SARS-CoV-2 (strain USA-WA1/2020); experiment: microbe, parasite or virus in culture; type: cell-based; conditions: Severe acute respiratory syndrome coronavirus 2; HeLa-ACE2 cells; read-out: Antiviral CoV-2 EC50

Sequence of MERS Mpro (K9N7C7 3248-3553 limits assumed): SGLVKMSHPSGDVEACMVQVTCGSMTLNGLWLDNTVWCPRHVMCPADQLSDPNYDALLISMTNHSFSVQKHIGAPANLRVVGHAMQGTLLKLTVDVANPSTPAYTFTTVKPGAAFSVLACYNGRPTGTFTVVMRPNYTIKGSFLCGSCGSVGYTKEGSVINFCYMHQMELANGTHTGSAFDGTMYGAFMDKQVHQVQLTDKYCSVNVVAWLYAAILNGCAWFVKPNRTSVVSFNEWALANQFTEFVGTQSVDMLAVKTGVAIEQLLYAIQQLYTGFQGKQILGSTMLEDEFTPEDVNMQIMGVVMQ

SMILES | Papp (in vitro [1]) [×10⁻⁶ cm/s] | CLint scaled (in vitro [2]) [mL/min/kg] | CLint scaled (in vitro [3]) [mL/min/kg] | EC50 (MERS Mpro) [nM] | CLint scaled (in vitro [2]; microsomes) [mL/min/kg] | CLint scaled (in vitro [3]; microsomes) [mL/min/kg] | EC50 (OC43 Mpro) [nM] | EC50 (229E Mpro) [nM] | EC50 (SARS-CoV-2 Mpro) [nM] | EC50 [4] [nM]
N#Cc1cc(C(=O)N2CCCC2)c(N2CC[C@@H](NC(=O)c3cc(=O)[nH]c4c(F)cccc34)C2)c(C(F)(F)F)c1 [Compound 20] | 13.8 | 142 | < 36.7 | 1.68 | – | – | – | – | – | –
N#Cc1cc(C(=O)N2CCOCC2)c(N2CC[C@@H](NC(=O)c3cc(=O)[nH]c4c(F)cccc34)C2)c(C2CC2)c1 [Compound 40] | 5.15 | – | – | 0.89 | 220 | < 28.3 | 0.55 | 2.47 | 0.42 | 5
O=C(N[C@@H]1CCN(c2c(C(=O)N3CC(F)(F)C3)cc(Br)cc2C(F)(F)F)C1)c1cc(=O)[nH]c2c(F)cccc12 [Compound 70] | 13.9 | – | – | 1.96 | 845 | 205 | 11.1 | 33.7 | 1.02 | –
Cc1cc(C(=O)N[C@@H]2CCN(c3c(C(=O)NCC(C)C)cc(C#N)cc3C(F)(F)F)C2)cc(=O)[nH]1 [Compound 29] | 3.51 | – | – | 8.85 | < 51.7 | < 30 | 378 | 682 | 13.9 | –
N#Cc1cc(C(=O)N2CCC(F)(F)C2)c(N2CC[C@@H](NC(=O)c3cc(=O)[nH]c4c(F)cccc34)C2)c(C(F)(F)F)c1 [Compound 21] | 8.89 | 128 | 55 | 1.3 | – | – | – | – | – | –
O=C(N[C@@H]1CCN(c2c(C(=O)N3CCC(F)(F)C3)cc(Br)cc2C(F)(F)F)C1)c1cc(=O)[nH]c2c(F)cccc12 [Compound 69] | 14.5 | – | – | 1.76 | 1040 | 303 | 4.92 | 15.5 | 0.67 | –
O=C(N[C@@H]1CCN(c2c(C(=O)N3CCCCC3)cc(Br)cc2C(F)(F)F)C1)c1cc(=O)[nH]c2c(F)cccc12 [Compound 64] | 14.9 | – | – | 1.38 | 1070 | 272 | 2.87 | 9.61 | 0.53 | –
N#Cc1cc(C(=O)N2CCNC(=O)C2)c(N2CC[C@@H](NC(=O)c3cc(=O)[nH]c4c(F)cccc34)C2)c(C(F)(F)F)c1 [Compound 27] | 0.11 | – | – | 1.36 | < 58.3 | < 35 | 8.72 | – | 0.63 | 2800
N#Cc1cc(C(=O)N2C[C@H]3COC[C@H]3C2)c(N2CC[C@@H](NC(=O)c3cc(=O)[nH]c4c(F)cccc34)C2)c(C(F)(F)F)c1 [Compound 18] | 7.19 | 95 | 38.3 | 1.35 | – | – | – | – | – | 13.6
O=C(N[C@@H]1CCN(c2c(C(=O)N3CCOCC3)cc(Br)cc2C(F)(F)F)C1)c1c(F)c(=O)[nH]c2ccccc12 [Compound 53] | 8.9 | – | – | 1.86 | 615 | 217 | 0.71 | 1.98 | 0.6 | –
O=C(N[C@@H]1CCN(c2c(OC(F)(F)F)cc(Cl)cc2C(=O)N2CCOCC2)C1)c1cc(=O)[nH]c2c(F)cccc12 [Compound 44] | 15.3 | – | – | 1.07 | 292 | 41.7 | 1.98 | 3.18 | 0.53 | –
N#Cc1cc(C(=O)N2CC3CC(C2)O3)c(N2CC[C@@H](NC(=O)c3cc(=O)[nH]c4c(F)cccc34)C2)c(C(F)(F)F)c1 [Compound 17] | 4.6 | < 48.3 | < 28.3 | 1.27 | – | – | – | – | – | –
N#Cc1cc(C(=O)N2CCOCC2)c(N2CC[C@H](NC(=O)c3cc(=O)[nH]c4c(F)cccc34)C2)c(C(F)(F)F)c1 [Compound 4] | 5.55 | – | – | – | < 41.7 | < 25 | – | – | – | –
O=C(N[C@H]1CCN(c2c(C(=O)N3CCOCC3)cc(Br)cc2C(F)(F)F)C1)c1cc(=O)[nH]c2c(F)cccc12 [Compound 47] | 15.7 | – | – | – | 182 | 46.7 | – | – | – | –
O=C(N[C@@H]1CC(=O)N(c2c(C(=O)N3CCOCC3)cc(Br)cc2C(F)(F)F)C1)c1c(F)c(=O)[nH]c2c(F)c(F)ccc12 [Compound 77] | 3.46 | – | – | 1.69 | < 65 | < 38.3 | 28.3 | 124 | 1.21 | –
C[C@@]12COC[C@@H]1CN(C(=O)c1cc(C#N)cc(C(F)(F)F)c1N1CC[C@@H](NC(=O)c3cc(=O)[nH]c4c(F)cccc34)C1)C2 [Compound 16] | 7.38 | 313 | 93.3 | 1.46 | – | – | – | – | – | –
COCCN1CCN(C(=O)c2cc(C#N)cc(C(F)(F)F)c2N2CC[C@@H](NC(=O)c3cc(=O)[nH]c4c(F)cccc34)C2)CC1 [Compound 19] | 6.68 | 200 | < 36.7 | 1.44 | – | – | – | – | – | –
O=C(N[C@@H]1CCN(c2c(C(=O)N3CC4COCC4C3)cc(Br)cc2C(F)(F)F)C1)c1cc(=O)[nH]c2c(F)cccc12 (stereo partly shown) [Compound 66] | 15 | – | – | 1.28 | 607 | 297 | 2.06 | 5.78 | 0.48 | –
Cc1[nH]c(=O)c(F)c(C(=O)N[C@@H]2CCN(c3c(C(=O)N4CCOCC4)cc(C#N)cc3C(F)(F)F)C2)c1Cl [Compound 11] | 0.49 | – | – | 1.63 | < 61.7 | – | 10.3 | 5.31 | 0.73 | –
O=C(N[C@@H]1CCN(c2c(C(=O)N3CCCC3)cc(Br)cc2C(F)(F)F)C1)c1cc(=O)[nH]c2c(F)cccc12 [Compound 68] | 14.7 | – | – | 1.83 | 1120 | 317 | 3.55 | 10.4 | 0.6 | –
Cc1cc(C(=O)N[C@@H]2CCN(c3c(C(=O)N4CCOCC4)cc(C#N)cc3C(F)F)C2)c(F)c(=O)[nH]1 [Compound 12] | 0.23 | – | – | 2.65 | < 41.7 | < 25 | 23.4 | 90.4 | 1.02 | –
CCS(=O)(=O)N1CCN(C(=O)c2cc(C#N)cc(C(F)(F)F)c2N2CC[C@@H](NC(=O)c3cc(=O)[nH]c4c(F)cccc34)C2)CC1 [Compound 25] | 2.06 | – | – | 1.41 | – | – | – | – | – | –
N#Cc1cc(C(=O)N2CCCCC2)c(N2CC[C@@H](NC(=O)c3cc(=O)[nH]c4c(F)cccc34)C2)c(C(F)(F)F)c1 [Compound 15] | 15.2 | 220 | 76.7 | 3.28 | – | – | – | – | – | –
CN1CCN(C(=O)c2cc(C#N)cc(C3CC3)c2N2CC[C@@H](NC(=O)c3cc(=O)[nH]c4c(F)cccc34)C2)CC1 [Compound 41] | 0.59 | – | – | 0.82 | 280 | 147 | 0.69 | 2.16 | 0.45 | –
COCCN(C)C(=O)c1cc(Br)cc(C(F)(F)F)c1N1CC[C@@H](NC(=O)c2cc(=O)[nH]c3c(F)cccc23)C1 [Compound 72] | 19.6 | – | – | 2.83 | 1280 | 562 | 19.2 | 39 | 1.11 | –
